BigSolDB 2.1

Cc1cc(C)c(C(=O)P(=O)(C(=O)c2c(C)cc(C)cc2C)c2ccccc2)c(C)c1
Settings	solubility (mole fraction)
in acetonitrile, 295.4 K	0.00463
in acetonitrile, 303.2 K	0.00793
in acetonitrile, 308 K	0.0108
in acetonitrile, 313.3 K	0.0154
in acetonitrile, 318.1 K	0.0225
in acetonitrile, 323.2 K	0.03
in acetonitrile, 328.1 K	0.0421
in acetonitrile, 333.2 K	0.0611
in acetonitrile, 338.1 K	0.0863
in cyclohexane, 295.4 K	0.0016
in cyclohexane, 303.2 K	0.00239
in cyclohexane, 308.3 K	0.00323
in cyclohexane, 313.1 K	0.00414
in cyclohexane, 318.2 K	0.00542
in cyclohexane, 323.4 K	0.00732
in cyclohexane, 328.1 K	0.00966
in cyclohexane, 333.2 K	0.0123
in cyclohexane, 338.1 K	0.017
in cyclohexane, 343.3 K	0.0217
in ethanol, 295.4 K	0.00372
in ethanol, 303.2 K	0.00627
in ethanol, 307.2 K	0.00827
in ethanol, 313.1 K	0.0119
in ethanol, 318 K	0.0161
in ethanol, 324.1 K	0.0239
in ethanol, 328.3 K	0.0326
in ethanol, 333.2 K	0.0471
in ethyl acetate, 295.4 K	0.0178
in ethyl acetate, 303.2 K	0.0259
in ethyl acetate, 307.9 K	0.0326
in ethyl acetate, 313.2 K	0.0406
in ethyl acetate, 318.2 K	0.0508
in ethyl acetate, 323.3 K	0.064
in ethyl acetate, 328.2 K	0.0842
in ethyl acetate, 333 K	0.103
in ethyl acetate, 338.1 K	0.127
in ethyl acetate, 343.2 K	0.16
in isopropanol, 295.4 K	0.00278
in isopropanol, 305.2 K	0.0055
in isopropanol, 308.2 K	0.0068
in isopropanol, 313.3 K	0.0098
in isopropanol, 318 K	0.0137
in isopropanol, 324.1 K	0.0205
in isopropanol, 328.1 K	0.0281
in isopropanol, 333.2 K	0.04
in isopropanol, 338.3 K	0.0556
in isopropanol, 343.2 K	0.0793
in methanol, 295.4 K	0.00235
in methanol, 303.2 K	0.00434
in methanol, 308.3 K	0.00629
in methanol, 313.1 K	0.00909
in methanol, 318.2 K	0.0134
in methanol, 323.4 K	0.0195
in methanol, 328 K	0.0283
in methanol, 333.2 K	0.0427
in n-hexane, 295.4 K	0.00151
in n-hexane, 303.2 K	0.00218
in n-hexane, 308.1 K	0.00277
in n-hexane, 313.2 K	0.00323
in n-hexane, 318.1 K	0.00389
in n-hexane, 322.9 K	0.00442
in n-hexane, 328.1 K	0.00525
in n-hexane, 333.2 K	0.00635
